US20040176368A1, “Pesticidal composition” (Sumitomo Chemical Company, Limited, priority 2003, published 2004)

Test system: German cockroaches (Blattlla germanica)
Experiment: Spray test on German cockroaches in glass box (Test example 1)
Assay type: in vivo
Details: 4.2 ml sprayed, 10 min exposure, observed 4 days thereafter
Experimental: Two grams (2 g) of each of Indoxacarb MP and Imiprothrin are mixed with 98 g of a mixture of xylene/Sorpol SM200X (surfactant produced by Toho Chemical)=85/15 to give each formulation of Indoxacarb MP and Imiprothrin. The formulations for the following tests are produced by mixing the Indoxacarb MP formulation with the Imiprothrin formulation at the designated ratio. The formulations for the tests are diluted with water to the designated concentration to give the preparations for the test.
Into the glass box, 4.2 ml of the preparation obtained above were sprayed with a spray gun. Ten minutes after spraying, the cockroaches were transferred to a plastic container and were provided with food and water. The mortality of the cockroaches was observed 4 days thereafter.

| Compound | Mortality (%) (concentration of the preparation 0.5 % by weight) | Mortality (%) (concentration of the preparation 0.4 % by weight) |
| --- | --- | --- |
| COC(=O)N(C(=O)N1COC2(C(=O)OC)Cc3cc(Cl)ccc3C2=N1)c1ccc(OC(F)(F)F)cc1 (racemic) [Indoxacarb MP, methyl (RS)-7-chloro-2,5-dihydro-2-[[(methoxycarbonyl)[4-(trifluoromethoxy)phenyl]amino]carbornyl]indeno[1,2-e][1,3,4]oxadiazine-4a(3H)-carboxylate] | 25 |  |
| C#CCN1CC(=O)N(COC(=O)C2C(C=C(C)C)C2(C)C)C1=O (mixture of isomers) [Imiprothrin, 2,5-dioxo-3-prop-2-ynylimidazolidin-1-ylmethyl (1R)-trans,cis-2,2-dimethyl-3-(2-methylprop-1-enyl)cyclopropanecarboxylate] |  | 0 |
